According to ChEMBL document CHEMBL1641539 (Bioorg Med Chem Lett, 2011):

Assays:
[1] = target: Mitogen-activated protein kinase 10 (Homo sapiens, UniProt P53779); assay: Inhibition of recombinant JNK3 after 60 mins by TR-FRET assay
[2] = target: Mitogen-activated protein kinase 8 (Homo sapiens, UniProt P45983); assay: Inhibition of recombinant JNK1 after 60 mins by TR-FRET assay
[3] = target: Mitogen-activated protein kinase 1 (Homo sapiens, UniProt P28482); assay: Inhibition of recombinant ERK2 after 60 mins by TR-FRET assay
[4] = target: Mitogen-activated protein kinase 9 (Homo sapiens, UniProt P45984); assay: Inhibition of recombinant JNK2 after 60 mins by TR-FRET assay
[5] = target: Mitogen-activated protein kinase 14 (Homo sapiens, UniProt Q16539); assay: Inhibition of recombinant p38alpha after 60 mins by TR-FRET assay
[6] = Oxidative metabolic stability in mouse liver microsomes assessed as compound remaining at 2 uM after 30 mins; assay type: ADME, Microsome; conditions: read-out: Stability
[7] = Oxidative metabolic stability in human liver microsomes assessed as compound remaining at 2 uM after 30 mins; assay type: ADME, Microsome; conditions: read-out: Stability
[8] = Apparent permeability of the compound from apical to basolateral direction in MDCK2 cells at 5 uM after 120 mins; assay type: ADME, cell-based, Canis lupus familiaris, MDCK-II; conditions: dog, MDCK
[9] = Efflux ratio, ratio of permeability from apical to basolateral in MDCK2 cells over expressing MDR1 in presence of P-gp inhibitor to permeability from apical to basolateral in MDCK2 cells over expressing MDR1 in absence of P-gp inhibitor at 5 uM after 120 mins; assay type: ADME, cell-based, Canis lupus familiaris; conditions: dog, mdck-ii, 2 h

Sequence of Mitogen-activated protein kinase 9 (P45984 whole entry): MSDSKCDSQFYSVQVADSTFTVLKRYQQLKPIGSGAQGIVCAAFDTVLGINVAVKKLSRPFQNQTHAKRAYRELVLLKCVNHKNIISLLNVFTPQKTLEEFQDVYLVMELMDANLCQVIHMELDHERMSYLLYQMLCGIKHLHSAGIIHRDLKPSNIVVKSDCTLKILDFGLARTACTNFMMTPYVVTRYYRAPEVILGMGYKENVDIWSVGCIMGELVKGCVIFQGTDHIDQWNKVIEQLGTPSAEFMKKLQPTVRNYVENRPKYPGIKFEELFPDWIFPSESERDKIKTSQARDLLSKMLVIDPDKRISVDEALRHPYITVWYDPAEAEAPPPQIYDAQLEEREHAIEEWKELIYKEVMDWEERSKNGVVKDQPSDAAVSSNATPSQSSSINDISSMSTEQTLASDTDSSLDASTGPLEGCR
Sequence of Mitogen-activated protein kinase 10 (P53779 whole entry): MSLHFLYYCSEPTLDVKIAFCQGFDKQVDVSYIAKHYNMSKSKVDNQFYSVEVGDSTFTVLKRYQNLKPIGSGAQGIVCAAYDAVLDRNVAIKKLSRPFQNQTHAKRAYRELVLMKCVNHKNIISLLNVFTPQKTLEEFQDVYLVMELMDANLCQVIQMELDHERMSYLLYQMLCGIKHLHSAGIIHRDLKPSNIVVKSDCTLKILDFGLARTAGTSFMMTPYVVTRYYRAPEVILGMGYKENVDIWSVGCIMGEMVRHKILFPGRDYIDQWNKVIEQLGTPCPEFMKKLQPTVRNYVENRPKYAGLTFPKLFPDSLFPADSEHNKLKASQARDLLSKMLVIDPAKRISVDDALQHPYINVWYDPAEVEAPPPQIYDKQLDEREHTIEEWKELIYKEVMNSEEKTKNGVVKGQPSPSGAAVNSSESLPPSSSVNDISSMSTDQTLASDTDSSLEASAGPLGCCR
Sequence of Mitogen-activated protein kinase 8 (P45983 whole entry): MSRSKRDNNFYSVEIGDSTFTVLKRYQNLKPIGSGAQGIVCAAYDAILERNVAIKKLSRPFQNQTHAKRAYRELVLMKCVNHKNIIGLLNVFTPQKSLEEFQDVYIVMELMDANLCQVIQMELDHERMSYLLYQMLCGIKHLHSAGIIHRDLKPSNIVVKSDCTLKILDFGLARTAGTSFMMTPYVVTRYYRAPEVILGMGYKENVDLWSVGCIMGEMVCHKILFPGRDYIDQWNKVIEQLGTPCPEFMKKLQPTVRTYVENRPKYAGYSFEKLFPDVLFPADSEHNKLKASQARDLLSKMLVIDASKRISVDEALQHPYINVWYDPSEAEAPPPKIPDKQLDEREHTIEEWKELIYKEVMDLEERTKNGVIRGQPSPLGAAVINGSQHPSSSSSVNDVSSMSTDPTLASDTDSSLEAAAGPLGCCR
Sequence of Mitogen-activated protein kinase 1 (P28482 whole entry): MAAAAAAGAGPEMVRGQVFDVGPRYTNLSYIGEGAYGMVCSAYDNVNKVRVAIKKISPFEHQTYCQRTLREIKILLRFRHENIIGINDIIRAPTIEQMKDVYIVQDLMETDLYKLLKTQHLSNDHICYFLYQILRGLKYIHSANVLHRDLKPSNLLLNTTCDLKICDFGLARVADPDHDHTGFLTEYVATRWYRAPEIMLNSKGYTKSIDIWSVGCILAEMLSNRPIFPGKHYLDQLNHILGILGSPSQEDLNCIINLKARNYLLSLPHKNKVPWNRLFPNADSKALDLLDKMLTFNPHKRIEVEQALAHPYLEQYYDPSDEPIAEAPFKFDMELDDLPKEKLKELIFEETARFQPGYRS
Sequence of Mitogen-activated protein kinase 14 (Q16539 whole entry): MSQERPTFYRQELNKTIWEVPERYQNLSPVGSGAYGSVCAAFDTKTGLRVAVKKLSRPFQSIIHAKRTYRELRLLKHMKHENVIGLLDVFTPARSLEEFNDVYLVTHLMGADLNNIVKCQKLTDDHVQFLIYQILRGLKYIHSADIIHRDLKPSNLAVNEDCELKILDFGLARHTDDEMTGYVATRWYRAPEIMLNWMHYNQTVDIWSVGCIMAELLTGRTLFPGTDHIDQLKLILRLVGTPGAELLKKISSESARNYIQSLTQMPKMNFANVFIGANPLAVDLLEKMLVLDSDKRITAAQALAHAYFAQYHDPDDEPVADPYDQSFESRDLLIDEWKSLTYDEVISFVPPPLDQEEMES

| SMILES | IC50 [1] [nM] | IC50 [2] [nM] | IC50 [3] [nM] | IC50 [4] [nM] | IC50 [5] [nM] | remaining at 0.5 h, 2 µM [6] [%] | remaining at 0.5 h, 2 µM [7] [%] | Papp A→B at 2 h, 5 µM [8] [×10⁻⁶ cm/s] | Ratio [9] |
| --- | --- | --- | --- | --- | --- | --- | --- | --- | --- |
| O=c1[nH]nc(-c2ccncc2)n1-c1ccc2ccccc2c1 | 16000 | > 50000 | > 50000 | 32000 | > 50000 | – | – | – | – |
| O=c1[nH]nc(-c2ccnc(Nc3nccs3)c2)n1-c1ccc2ccccc2c1 | 210 | > 50000 | > 50000 | 650 | > 50000 | – | – | – | – |
| C[C@H](Nc1cc(-c2n[nH]c(=O)n2-c2ccc3ccccc3c2)ccn1)c1ccccc1 | 3900 | > 5000 | > 5000 | > 5000 | > 5000 | – | – | – | – |
| O=c1[nH]nc(-c2ccnc(NC3CCOCC3)c2)n1-c1ccc2cc(F)ccc2c1 | 70 | 740 | > 50000 | 190 | > 50000 | 100 | 88 | 7.3 | – |
| CC(=O)Nc1cc(-c2n[nH]c(=O)n2-c2ccc3ccccc3c2)ccn1 | 410 | 7200 | > 50000 | 1500 | > 50000 | – | – | – | – |
| O=C(Nc1cc(-c2n[nH]c(=O)n2-c2ccc3ccccc3c2)ccn1)c1ccccc1 | 590 | > 50000 | > 50000 | 4400 | > 50000 | – | – | – | – |
| O=c1[nH]nc(-c2ccnc(NC3CCOCC3)c2)n1-c1ccc2cccc(Cl)c2c1 | 14 | 110 | – | 150 | – | – | – | – | – |
| COC(=O)N1CCC(n2nc(-c3ccnc(NC4CCOCC4)c3)n(-c3ccc4ccccc4c3)c2=O)CC1 | 24 | 360 | > 5000 | 58 | > 50000 | – | – | – | – |
| O=c1[nH]nc(-c2ccnc(NC3CCCC3)c2)n1-c1ccc2ccccc2c1 | 130 | > 50000 | > 50000 | 350 | > 50000 | – | – | – | – |
| Nc1cccc2ccc(-n3c(-c4ccnc(NC5CCOCC5)c4)n[nH]c3=O)cc12 | 94 | 2600 | > 50000 | 570 | > 50000 | – | – | – | – |
| O=c1[nH]nc(-c2ccnc(Nc3cccnc3)c2)n1-c1ccc2ccccc2c1 | 250 | 3300 | 14000 | 950 | > 50000 | – | – | – | – |
| CCN1CCC(n2nc(-c3ccnc(NC4CCOCC4)c3)n(-c3ccc4ccccc4c3)c2=O)CC1 | 280 | > 5000 | – | 2000 | – | – | – | – | – |
| O=c1[nH]nc(-c2ccnc(NC3CCOCC3)c2)n1-c1ccc2cccc(F)c2c1 | 54 | > 500 | > 50000 | 380 | > 50000 | – | – | – | – |
| O=c1n(C2CCNCC2)nc(-c2ccnc(NC3CCOCC3)c2)n1-c1ccc2ccccc2c1 | 160 | 4500 | > 5000 | 530 | > 50000 | – | – | – | – |
| O=C(Nc1cc(-c2n[nH]c(=O)n2-c2ccc3ccccc3c2)ccn1)C1CC1 | 120 | 4600 | > 50000 | 440 | > 50000 | – | – | – | – |
| O=c1n(CC2CCOCC2)nc(-c2ccnc(NC3CCCCC3)c2)n1-c1ccc2ccccc2c1 | 22 | 420 | > 50000 | 61 | > 50000 | – | – | – | – |
| O=c1[nH]nc(-c2ccnc(NC3CCOCC3)c2)n1-c1ccc2cc(Br)ccc2c1 | 430 | 4200 | > 50000 | 780 | > 50000 | – | – | – | – |
| O=c1[nH]nc(-c2ccnc(Nc3ccccn3)c2)n1-c1ccc2ccccc2c1 | 40 | 2200 | > 50000 | 110 | > 50000 | – | – | – | – |
| O=c1n(-c2ccccn2)nc(-c2ccnc(NC3CCOCC3)c2)n1-c1ccc2ccccc2c1 | 100 | 1400 | > 50000 | 150 | > 50000 | 1.5 | 59 | 5.1 | 1.5 |
| O=c1[nH]nc(-c2ccnc(Nc3ccccc3)c2)n1-c1ccc2ccccc2c1 | 61 | 5700 | > 50000 | 470 | > 50000 | – | – | – | – |
| O=c1n(C2CCOC2)nc(-c2ccnc(NC3CCOCC3)c2)n1-c1ccc2ccccc2c1 (stereo not given) | 92 | 3800 | > 50000 | 320 | > 50000 | 1.6 | 27 | 21.8 | 1.6 |
| O=c1[nH]nc(-c2ccnc(NC3CCC3)c2)n1-c1ccc2ccccc2c1 | 70 | 1800 | > 50000 | 220 | > 50000 | – | – | – | – |
| O=c1[nH]nc(-c2ccnc(NC3CC3)c2)n1-c1ccc2ccccc2c1 | 130 | 3900 | > 50000 | 390 | > 50000 | – | – | – | – |
| Nc1ccc2cc(-n3c(-c4ccnc(NC5CCOCC5)c4)n[nH]c3=O)ccc2c1 | 950 | 1700 | > 50000 | 5300 | > 50000 | – | – | – | – |
| O=c1n(C2CCN(CC(F)(F)F)CC2)nc(-c2ccnc(NC3CCOCC3)c2)n1-c1ccc2ccccc2c1 | 36 | 900 | – | 170 | – | – | – | – | – |
